Like-named read-outs stand apart in the source and are kept apart here.
What was measured:
Type in all cases: cell-based
NCI-H1975 = test: Tumor cell growth inhibitory activity, NCI-H1975
[1] = system: Human esophageal cancer cells OE33; test: Tumor cell growth inhibitory activity (CCK-8), OE33
Description: (§1) Human esophageal cancer cells OE33 (human breast adenocarcinoma cells SK-BR-3, or human gastric cancer cells NCI-N87) was cultured in RPMI1640 (Cellmax) supplemented with 10% fetal bovine serum (Cellmax). Cells in the exponential growth phase were diluted to a concentration of 1×10^5 cells/mL by culture medium and added to 96-well cell culture plates at 100 μL per well, then returned back and incubated overnight in a 37° C. incubator with 5% CO2. On the following day, the compounds were diluted to concentrations of 10000 nM, 2000 nM, 400 nM, 80 nM, 16 nM, 3.2 nM, 0.64 nM, and 0.13 nM by culture medium and the diluted compounds were added to the 96-well cell culture plates at 2 μL per well, with three replicate wells for each concentration. Negative control and blank control groups without addition of compounds were added with 2 μL of the dilution liquid per well. After the addition of the compounds, the plates were returned back to the 37° C. incubator with 5% CO2 to continue the incubation for 72 h. After the incubation, the cell culture plates were removed, and the culture medium was aspirated using a pipette. Then, 100 μL of culture medium containing 10% CCK-8 was added to each well, and the plates were incubated at 37° C. for 3 h. After the incubation, the plates were removed, kept in the dark, and placed in an ELISA plate. Absorbance was measured at 630 nm as the reference wavelength and 450 nm as the test wavelength. The IC50 values (Table 2) were calculated using the four-parameter logistic regression method in GraphPad.

[2] = system: human breast adenocarcinoma cells SK-BR-3; test: Tumor cell growth inhibitory activity (CCK-8), SK-BR-3
Description: as §1

[3] = system: human gastric cancer cells NCI-N87; test: Tumor cell growth inhibitory activity (CCK-8), NCI-N87
Description: as §1

MDA-MB-231 = test: Tumor cell growth inhibitory activity, MDA-MB-231
[4] = Homo sapiens, NCI-H1975, read-out: IC50 (nM) for inhibiting the growth of tumor cells, NCI-H1975, NCI-H1975 cells
[5] = read-out: IC50 (nM) for inhibiting the growth of tumor cells, OE33, OE33 cells, 72 h incubation, CCK-8
[6] = read-out: IC50 (nM) for inhibiting the growth of tumor cells, SK-BR-3, SK-BR-3 cells, 72 h incubation, CCK-8
[7] = read-out: IC50 (nM) for inhibiting the growth of tumor cells, NCI-N87, NCI-N87 cells, 72 h incubation, CCK-8
[8] = Homo sapiens, MDA-MB-231, read-out: IC50 (nM) for inhibiting the growth of tumor cells, MDA-MB-231, MDA-MB-231 cells
[9] = Homo sapiens, OE33, 72 h, read-out: IC50 (nM) for inhibiting the growth of tumor cells, OE33, OE33 cells, 72 h incubation, CCK-8
[10] = Homo sapiens, SK-BR-3, 72 h, read-out: IC50 (nM) for inhibiting the growth of tumor cells, SK-BR-3, SK-BR-3 cells, 72 h incubation, CCK-8
[11] = Homo sapiens, NCI-N87, 72 h, read-out: IC50 (nM) for inhibiting the growth of tumor cells, NCI-N87, NCI-N87 cells, 72 h incubation, CCK-8
[12] = Homo sapiens, NCI-H1975 cells, read-out: IC50 (nM) for inhibiting the growth of tumor cells, NCI-H1975
[13] = Homo sapiens, OE33 cells, 72 h incubation, CCK-8, read-out: IC50 (nM) for inhibiting the growth of tumor cells, OE33
[14] = Homo sapiens, SK-BR-3 cells, 72 h incubation, CCK-8, read-out: IC50 (nM) for inhibiting the growth of tumor cells, SK-BR-3
[15] = Homo sapiens, NCI-N87 cells, 72 h incubation, CCK-8, read-out: IC50 (nM) for inhibiting the growth of tumor cells, NCI-N87
[16] = Homo sapiens, MDA-MB-231 cells, read-out: IC50 (nM) for inhibiting the growth of tumor cells, MDA-MB-231

Compound	IC50 (NCI-H1975; [4])	IC50 (MDA-MB-231; [8])	IC50 [1, 9]	IC50 [2, 10]	IC50 [3, 11]	IC50 (NCI-H1975; [12])	IC50 [1, 13]	IC50 [2, 14]	IC50 [3, 15]	IC50 (MDA-MB-231; [16])	further results
CC[C@@]1(O)C(=O)OCc2c1cc1n(c2=O)Cc2c-1nc1cc3c(cc1c2CCNCCOC)OCO3 [Compound 17, 7-(2-(2-Methoxyethyl)amino)ethyl-10,11-methylenedioxycamptothecin]	9.09 nM	103 nM	–	–	–	–	–	–	–	–	IC50 [1, 5]: 2.49 nM; IC50 [2, 6]: 6.53 nM; IC50 [3, 7]: 0.7 nM
CC[C@@]1(O)C(=O)OCc2c1cc1n(c2=O)Cc2c-1nc1cc3c(cc1c2CCN[C@@H](C)CCO)OCO3 [Compound 18, 7-(2-((S)-4-Hydroxybutyl-2-yl)amino)ethyl-10,11-methylenedioxycamptothecin]	–	446 nM	–	–	–	–	–	–	–	–	IC50 (NCI-H1975; read-out: IC50 (nM) for inhibiting the growth of tumor cells, NCI-H1975, NCI-H1975 cells): 222 nM; IC50 [1, 5]: 20.4 nM; IC50 [2, 6]: 17.1 nM; IC50 [3, 7]: 3.63 nM
CC[C@@]1(O)C(=O)OCc2c1cc1n(c2=O)Cc2c-1nc1cc3c(cc1c2CCNCC(F)F)OCO3 [Compound 24, 7-(2-(2-Difluoroethyl)amino)ethyl-10,11-methylenedioxycamptothecin]	15.6 nM	78.2 nM	0.56 nM	2.96 nM	0.24 nM	–	–	–	–	–	–
CC[C@@]1(O)C(=O)OCc2c1cc1n(c2=O)Cc2c-1nc1cc3c(cc1c2CCNC1CCOCC1)OCO3 [Compound 25, 7-(2-(Tetrahydropyran-4-yl)amino)ethyl-10,11-methylenedioxycamptothecin]	15.8 nM	21.3 nM	4.89 nM	4.96 nM	0.46 nM	–	–	–	–	–	–
CC[C@@]1(O)C(=O)OCc2c1cc1n(c2=O)Cc2c-1nc1cc3c(cc1c2CCNC1CCC(OC)CC1)OCO3 (stereo partly drawn) [Compound 27, 7-(2-(4-Methoxycyclohexyl)amino)ethyl-10,11-methylenedioxycamptothecin]	30.2 nM	155 nM	7.9 nM	26.1 nM	2.91 nM	–	–	–	–	–	–
CC[C@@]1(O)C(=O)OCc2c1cc1n(c2=O)Cc2c-1nc1cc3c(cc1c2CCN[C@@H](C)CN=[N+]=[N-])OCO3 [Compound 29, 7-(2-((S)-Azidoisopropyl)amino)ethyl-10,11-methylenedioxycamptothecin]	5.56 nM	32.7 nM	1.4 nM	2 nM	0.84 nM	–	–	–	–	–	–
CC[C@@]1(O)C(=O)OCc2c1cc1n(c2=O)Cc2c-1nc1cc3c(cc1c2CCN(C(=O)CO)[C@@H](C)COC)OCO3 [Compound 30, 7-(2-(N-Hydroxyacetyl((S)-methoxyisopropyl))amino)ethyl-10,11-methylenedioxycamptothecin]	–	–	–	–	–	15.4 nM	6.47 nM	6.23 nM	1.56 nM	98.5 nM	–
CC[C@@]1(O)C(=O)OCc2c1cc1n(c2=O)Cc2c-1nc1cc3c(cc1c2CCN[C@@H]1CCOC1)OCO3 [Compound 34, 7-(2-(N-(R)-Tetrahydrofuran-3-ylamino))ethyl-10,11-methylenedioxycamptothecin]	14.4 nM	41.8 nM	2.94 nM	0.45 nM	54.2 nM	–	–	–	–	–	–
CC[C@@]1(O)C(=O)OCc2c1cc1n(c2=O)Cc2c-1nc1cc3c(cc1c2CCN[C@H]1CCOC1)OCO3 [Compound 35, 7-(2-(N-(S)-Tetrahydrofuran-3-ylamino))ethyl-10,11-methylenedioxycamptothecin]	18.5 nM	73.5 nM	2.18 nM	0.87 nM	54 nM	–	–	–	–	–	–
C[C@@]1(O)C(=O)OCc2c1cc1n(c2=O)Cc2c-1nc1cc3c(cc1c2CCNC(=O)C(F)F)OCO3 [Compound 36, 7-(2-Difluoroacetylamino)ethyl-10,11-methylenedioxycamptothecin]	–	–	–	–	–	38.7 nM	7.24 nM	2.8 nM	7.66 nM	110 nM	–
CC[C@@]1(O)C(=O)OCc2c1cc1n(c2=O)Cc2c-1nc1cc3c(cc1c2CCNCCOC)OCCO3 [Compound 42, 7-(2-(2-Methoxyethyl)amino)ethyl-10,11-ethylenedioxycamptothecin]	–	–	–	–	–	26.6 nM	9.95 nM	18 nM	9.96 nM	94.8 nM	–
CC[C@@]1(O)C(=O)OCc2c1cc1n(c2=O)Cc2c-1nc1cc3c(cc1c2CCNC1CCOCC1)OCCO3 [Compound 43, 7-(2-(Tetrahydropyran-4-yl)amino)ethyl-10,11-ethylenedioxycamptothecin]	–	–	–	–	–	58.7 nM	39.3 nM	81.8 nM	7.43 nM	243 nM	–
CC[C@@]1(O)C(=O)OCc2c1cc1n(c2=O)Cc2c-1nc1cc3c(cc1c2CCNC1CCC(OC)CC1)OCCO3 (stereo partly drawn) [Compound 44, 7-(2-(4-Methoxycyclohexyl)amino)ethyl-10,11-ethylenedioxycamptothecin]	–	–	–	–	–	27.1 nM	13.8 nM	33.6 nM	3.54 nM	88.5 nM	–
CC[C@@]1(O)C(=O)OCc2c1cc1n(c2=O)Cc2c-1nc1cc3c(cc1c2CCN[C@@H](C)COC)OCCO3 [Compound 45, 7-(2-((S)-Methoxyisopropyl)amino)ethyl-10,11-ethylenedioxycamptothecin]	–	–	–	–	–	106 nM	10.3 nM	18.5 nM	2.46 nM	960 nM	–
CC[C@@]1(O)C(=O)OCc2c1cc1n(c2=O)Cc2c-1nc1cc(F)c(C)c3c1c2[C@@H](NC(=O)CO)CC3 [Dxd, reference compound]	–	–	–	–	–	–	–	–	–	–	IC50 (NCI-H1975; NCI-H1975 cells, read-out: IC50 (nM) for inhibiting the growth of tumor cells, NCI-H1975): 286 nM; IC50 ([1]; OE33 cells, 72 h incubation, CCK-8, read-out: IC50 (nM) for inhibiting the growth of tumor cells, OE33): 7.01 nM; IC50 ([2]; SK-BR-3 cells, 72 h incubation, CCK-8, read-out: IC50 (nM) for inhibiting the growth of tumor cells, SK-BR-3): 9.69 nM; IC50 ([3]; NCI-N87 cells, 72 h incubation, CCK-8, read-out: IC50 (nM) for inhibiting the growth of tumor cells, NCI-N87): 2.48 nM; IC50 (MDA-MB-231; MDA-MB-231 cells, read-out: IC50 (nM) for inhibiting the growth of tumor cells, MDA-MB-231): 135 nM

From patent publication US20260042774A1, “CAMPTOTHECIN-7-ETHYLAMINE DERIVATIVE, PREPARATION METHOD THEREFOR, AND USE THEREOF” (HANGZHOU ADCORIS BIOPHARMA CO., LTD, priority 2022, published 2026)
